The target of the experiment is T1, androgen receptor (rat ventral prostate cytosol) (Rattus norvegicus, UniProt P15207).
T1 construct: from tissue; host or cells: ventral prostate cytosol of castrated male Sprague Dawley or Wistar rats
T1 sequence (P15207 1-902): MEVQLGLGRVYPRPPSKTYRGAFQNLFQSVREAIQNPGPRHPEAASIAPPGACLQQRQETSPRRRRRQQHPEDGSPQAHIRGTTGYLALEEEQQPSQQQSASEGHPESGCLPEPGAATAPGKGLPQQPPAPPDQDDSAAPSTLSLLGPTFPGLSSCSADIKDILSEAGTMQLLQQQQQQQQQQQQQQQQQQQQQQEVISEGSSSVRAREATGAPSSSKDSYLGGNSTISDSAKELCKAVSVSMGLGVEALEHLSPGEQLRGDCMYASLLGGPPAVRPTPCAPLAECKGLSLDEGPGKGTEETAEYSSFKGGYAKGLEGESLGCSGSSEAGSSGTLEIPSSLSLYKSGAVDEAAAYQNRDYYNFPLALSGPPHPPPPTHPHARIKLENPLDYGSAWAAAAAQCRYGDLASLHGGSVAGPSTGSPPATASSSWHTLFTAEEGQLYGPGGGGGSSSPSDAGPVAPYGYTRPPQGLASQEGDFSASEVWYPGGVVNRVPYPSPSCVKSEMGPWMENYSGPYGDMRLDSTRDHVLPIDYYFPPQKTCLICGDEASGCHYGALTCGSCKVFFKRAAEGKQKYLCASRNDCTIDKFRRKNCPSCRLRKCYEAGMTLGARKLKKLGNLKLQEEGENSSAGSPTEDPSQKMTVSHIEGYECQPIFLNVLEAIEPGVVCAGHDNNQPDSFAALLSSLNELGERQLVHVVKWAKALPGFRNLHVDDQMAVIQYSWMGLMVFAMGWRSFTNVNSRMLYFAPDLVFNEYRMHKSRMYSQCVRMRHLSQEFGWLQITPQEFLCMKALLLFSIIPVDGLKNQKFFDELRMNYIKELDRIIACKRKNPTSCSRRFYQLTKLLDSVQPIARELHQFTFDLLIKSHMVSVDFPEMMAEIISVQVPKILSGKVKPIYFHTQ
Kind of experiment: Androgen Receptor Binding Using Rat Ventral Prostate Cytosol. Particulars: for inhibition at 3 µM / % Inhibition, Androgen Receptor Binding (Rat Cytosol): Concentration 3000 nM. The procedure, abridged: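 Cytosol from castrated rat ventral prostate was incubated overnight at 4°C with 0.5 nM [3H] tracer and compound in TED buffer (10 mM Tris-HCl pH 7.4, molybdate, EDTA, DTT, glycerol).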

What is called inhibition is the change of the read-out against control, counted positive when it falls. As usually defined, the IC50 is the concentration that inhibits the measured activity by half.

Values joined by “and” are separate entries in the source; they are usually repeats but may differ in a detail not shown here. Identical values can stand only once.

Regarding `CC(O)(CSC1CCCC1)c1cc2cc([N+](=O)[O-])c(C(F)(F)F)cc2[nH]1` (stereo not shown) [Compound 173], the inhibition at 3 µM is 32%. Still for that read-out and setting: then `CC(O)(CS(=O)(=O)c1ccc(N)cc1)c1cc2cc(Cl)c(C(F)(F)F)cc2[nH]1` (stereo not shown) [Compound 118], with 80.5%; and `CCSCC(C)(O)c1cc2cc([N+](=O)[O-])c(C(F)(F)F)cc2[nH]1` (racemic) [Compound 142], with 92%. Same read-out and setting: then `CCSCC(C)(O)c1cc2cc([N+](=O)[O-])c(C(F)(F)F)cc2n1S(C)(=O)=O` (stereo not shown) [Compound 141], with -4.5%.

For the compound `COc1ccc(SCC(C)(O)c2cc3cc(Cl)c(C(F)(F)F)cc3n2S(C)(=O)=O)cc1` (racemic) [Compound 130], the “% Inhibition, Androgen Receptor Binding (Rat Cytosol)” value (“% Inhibition” for short) was 32.55%. `CCSCC(C)(O)c1cc2cc([N+](=O)[O-])c(C(F)(F)F)cc2[nH]1` (single isomer, unassigned) [Compound 150]: for the setting “3 µM”, the “% Inhibition” value worked out at 120%. The same measure, in the same setting: then `CSCC(C)(O)c1cc2cc([N+](=O)[O-])c(C(F)(F)F)cc2[nH]1` (single isomer, unassigned) [Compound 145], with 58%.

Turning to `CC(O)(CSc1ccc(O)cc1)c1cc2cc(Cl)c(C(F)(F)F)cc2[nH]1` (stereo not shown) [Compound 120], the inhibition at 3 µM came out at 130%. On the same count and under the same terms, then `CC(C)SCC(C)(O)c1cc2cc([N+](=O)[O-])c(C(F)(F)F)cc2[nH]1` (stereo not shown) [Compound 164], with 52%. On the same count and under the same terms, then `CC(O)(CS(C)(=O)=O)c1cc2cc(Cl)c(C(F)(F)F)cc2[nH]1` (stereo not shown) [Compound 138], with 110%; and `CCSCC(O)c1cc2cc([N+](=O)[O-])c(C(F)(F)F)cc2[nH]1` (stereo not shown) [Compound 158], with 52%. For the compound `CC[S+]([O-])C[C@](C)(O)c1cc2cc([N+](=O)[O-])c(C(F)(F)F)cc2[nH]1` (stereo in doubt) [Compound 155, 1-Ethanesulfinyl-2-(5-nitro-6-trifluoromethyl-1H-indol-2-yl)-propan-2-ol], the inhibition at 3 µM is -6.1%. On the same count and under the same terms, then `CCCSCC(C)(O)c1cc2cc([N+](=O)[O-])c(C(F)(F)F)cc2[nH]1` (stereo not shown) [Compound 168], with 41%. As for `CC(O)(CS(C)(=O)=O)c1cc2cc([N+](=O)[O-])c(C(F)(F)F)cc2[nH]1` (stereo not shown) [Compound 140], under “3 µM”, the “% Inhibition” value was 47%. On the same count and under the same terms, then `CCS(=O)(=O)CC(C)(O)c1cc2cc([N+](=O)[O-])c(C(F)(F)F)cc2[nH]1` (stereo not shown) [Compound 143], with 14%. On to `CCS(=O)(=O)C[C@](C)(O)c1cc2cc([N+](=O)[O-])c(C(F)(F)F)cc2[nH]1` [Compound 156, 1-Ethanesulfonyl-2-(5-nitro-6-trifluoromethyl-1H-indol-2-yl)-propan-2-ol], for which the inhibition at 3 µM amounted to 66%. Also, the “% Inhibition” value (3 µM) turned out to be 67%.

In the case of `CSCC(C)(O)c1cc2cc([N+](=O)[O-])c(C(F)(F)F)cc2[nH]1` (single isomer, unassigned) [Compound 144], under “3 µM”, the “% Inhibition” value is given as 79%. Turning to `COc1ccc(S(=O)(=O)CC(C)(O)c2cc3cc(Cl)c(C(F)(F)F)cc3[nH]2)cc1` (racemic) [Compound 129], the “% Inhibition” value turned out to be 39.5%. `CSCC(C)(O)c1cc2cc(C#N)c(C(F)(F)F)cc2[nH]1` (stereo not shown) [Compound 136]: the inhibition at 3 µM was determined as 38%. In the case of `CC(O)(CS(C)(=O)=O)c1cc2cc([N+](=O)[O-])c(C(F)(F)F)cc2[nH]1` (stereo not shown) [Compound 147], the “% Inhibition” value (3 µM) came out at 68%. As for `CC(O)(C[S+]([O-])Cc1ccccc1)c1cc2cc([N+](=O)[O-])c(C(F)(F)F)cc2[nH]1` (mixture of isomers) [Compound 161], the “% Inhibition” value is listed as 39%. In the case of `CSCC(C)(O)c1cc2cc(Cl)c(C(F)(F)F)cc2[nH]1` (stereo not shown) [Compound 135], the inhibition at 3 µM came out at 130%.

In the case of `CCSCC(O)(CC)c1cc2cc([N+](=O)[O-])c(C(F)(F)F)cc2[nH]1` (stereo not shown) [Compound 169], the inhibition at 3 µM came out at 62%. The same measure, in the same setting: then `CC(O)(CS(=O)(=O)c1ccc(O)cc1)c1cc2cc(Cl)c(C(F)(F)F)cc2[nH]1` (stereo not shown) [Compound 121], with 86%; and `CC(O)(CSc1ccc([N+](=O)[O-])cc1)c1cc2cc(Cl)c(C(F)(F)F)cc2[nH]1` (stereo not shown) [Compound 122], with 83.5%. Same read-out and setting: then `CC(O)(CCS(C)(=O)=O)c1cc2cc([N+](=O)[O-])c(C(F)(F)F)cc2[nH]1` (stereo not shown) [Compound 49], with 48%; and `CC(O)(CSCc1ccccc1)c1cc2cc([N+](=O)[O-])c(C(F)(F)F)cc2[nH]1` (stereo not shown) [Compound 160], with 65%. With `CC(O)(CSCC(F)(F)F)c1cc2cc([N+](=O)[O-])c(C(F)(F)F)cc2[nH]1` (stereo not shown) [Compound 171], the inhibition at 3 µM was found to be 18%. Besides, for the setting “read-out: IC50 (nM), Androgen Receptor Binding (Rat Cytosol)”, the IC50 came out at 320 nM.

`CC(O)(CS(C)(=O)=O)c1cc2cc([N+](=O)[O-])c(C(F)(F)F)cc2[nH]1` (stereo not shown) [Compound 148]: the “% Inhibition” value (3 µM) amounted to 94%. For the compound `CSCCC(C)(O)c1cc2cc([N+](=O)[O-])c(C(F)(F)F)cc2[nH]1` (stereo not shown) [Compound 47], the inhibition at 3 µM amounted to 81%. Regarding `CCS(=O)(=O)CC(C)(O)c1cc2cc([N+](=O)[O-])c(C(F)(F)F)cc2[nH]1` (stereo not shown) [Compound 151], under “3 µM”, the “% Inhibition” value came out at 100%. For the compound `CC(O)(CSc1ccc(N)cc1)c1cc2cc(Cl)c(C(F)(F)F)cc2[nH]1` (stereo not shown) [Compound 104], the inhibition at 3 µM is 110%. Also, under “Concentration 1000 nM, read-out: % Inhibition, Androgen Receptor Binding (Rat Cytosol)”, the inhibition at 1 µM came out at 94.5%.

`CCC(O)(CS(=O)(=O)CC)c1cc2cc([N+](=O)[O-])c(C(F)(F)F)cc2[nH]1` (stereo not shown) [Compound 176]: the inhibition at 3 µM was 90%. The same measure, in the same setting: then `COc1ccc(SCC(C)(O)c2cc3cc(Cl)c(C(F)(F)F)cc3[nH]2)cc1` (stereo not shown) [Compound 131], with 120%. As to `CCSCC(C)(O)c1cc2cc([N+](=O)[O-])c(C(F)(F)F)cc2[nH]1` (single isomer, unassigned) [Compound 149], for the setting “3 µM”, the “% Inhibition” value is 94% and 77%.

In the case of `CC(C)CSCC(C)(O)c1cc2cc([N+](=O)[O-])c(C(F)(F)F)cc2[nH]1` (stereo not shown) [Compound 170], the inhibition at 3 µM amounted to 80%. The same measure, in the same setting: then `CCSCC(C)(O)c1cc2cc([N+](=O)[O-])c(C(F)(F)F)cc2n1C` (racemic) [Compound 165], with 52%.

Values taken from US7282507B2, “Indole derivatives as selective androgen receptor modulators (SARMS)” (Janssen Pharmaceutica N.V., priority 2004, dated 2007).
